The results in this text go back to patent publication US20250059171A1 (Hoffmann-La Roche Inc., priority 2021, published 2025).

Experiment [1] deals with SARS-CoV 3CLpro (Severe acute respiratory syndrome coronavirus, UniProt P0C6X7). As to the kind of experiment: biochemical.
In experiment [2] the target is HCoV-229E 3CLpro (Human coronavirus 229E, UniProt P0C6X1). Kind of experiment: HCoV-229E 3CLpro inhibition assay (FRET). The experiment is classed as biochemical.
Experiment [3] addresses SARS-CoV-2 3CLpro (Severe acute respiratory syndrome coronavirus 2, UniProt P0DTD1). As to the kind of experiment: biochemical.
Experiment [4] concerns the target MERS-CoV 3CLpro (Middle East respiratory syndrome-related coronavirus, UniProt K9N7C7). As to the kind of experiment: biochemical.

Sequence of HCoV-229E 3CLpro (P0C6X1 2966-3267): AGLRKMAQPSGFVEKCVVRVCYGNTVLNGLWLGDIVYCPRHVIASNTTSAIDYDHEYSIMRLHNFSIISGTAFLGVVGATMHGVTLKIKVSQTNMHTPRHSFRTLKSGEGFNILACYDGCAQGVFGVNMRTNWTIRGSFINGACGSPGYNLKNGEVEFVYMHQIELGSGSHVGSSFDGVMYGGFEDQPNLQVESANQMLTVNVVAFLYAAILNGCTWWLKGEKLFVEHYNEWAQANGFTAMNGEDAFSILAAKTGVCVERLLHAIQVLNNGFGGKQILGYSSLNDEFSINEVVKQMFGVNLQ
Sequence of MERS-CoV 3CLpro (K9N7C7 3248-3553): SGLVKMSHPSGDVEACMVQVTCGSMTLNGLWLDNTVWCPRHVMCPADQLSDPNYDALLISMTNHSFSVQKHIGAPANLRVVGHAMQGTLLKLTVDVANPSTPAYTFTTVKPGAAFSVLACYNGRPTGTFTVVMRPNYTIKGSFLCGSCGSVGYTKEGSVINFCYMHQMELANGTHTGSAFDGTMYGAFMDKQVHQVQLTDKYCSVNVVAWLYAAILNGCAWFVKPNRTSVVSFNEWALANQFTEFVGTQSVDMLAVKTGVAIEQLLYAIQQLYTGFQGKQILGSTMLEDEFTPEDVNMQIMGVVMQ

With `CC[C@H](C)[C@H](NC(=O)c1ccccc1)C(=O)N1C[C@@H]2CCC[C@@H]2[C@H]1C(=O)NN(C[C@@H]1CCNC1=O)C(=O)[C@H](F)Cl` [Example 80, N-[(1S,2S)-1-[(3S,3aS,6aR)-3-[[[(2R)-2-chloro-2-fluoro-acetyl]-[[(3S)-2-oxopyrrolidin-3-yl]methyl]amino]carbamoyl]-3,3a,4,5,6,6a-hexahydro-1H-cyclopenta[c]pyrrole-2-carbonyl]-2-methyl-butyl]benzamide], the IC50 in experiment [1] was found to be 11 nM; in experiment [2], 20 nM; in experiment [3], 10 nM; in experiment [4], 58 nM.

With `CCC(C)(C)[C@H](NC(=O)C1(F)CC1)C(=O)N1CC(C)(C)C[C@H]1C(=O)NN(C[C@@H]1CCNC1=O)C(=O)[C@H](F)Cl` [Example 154, N-[(1S)-1-[(2S)-2-[[[(2R)-2-chloro-2-fluoro-acetyl]-[[(3S)-2-oxopyrrolidin-3-yl]methyl]amino]carbamoyl]-4,4-dimethyl-pyrrolidine-1-carbonyl]-2,2-dimethyl-butyl]-1-fluoro-cyclopropanecarboxamide], the IC50 was determined as 21 nM in experiment [1], 52 nM in experiment [2], 17 nM in experiment [3] and 305 nM in experiment [4].

For `CC1(C)[C@@H]2[C@@H](C(=O)NN(C[C@@H]3CCNC3=O)C(=O)[C@@H](F)Cl)N(C(=O)[C@@H](NC(=O)C3(F)CC3)C3CCC3)C[C@@H]21` [Example 157, N-[(1S)-2-[(1R,2S,5S)-2-[[[(2S)-2-chloro-2-fluoro-acetyl]-[[(3S)-2-oxopyrrolidin-3-yl]methyl]amino]carbamoyl]-6,6-dimethyl-3-azabicyclo[3.1.0]hexan-3-yl]-1-cyclobutyl-2-oxo-ethyl]-1-fluoro-cyclopropanecarboxamide], the IC50 in experiment [1] came to 58 nM; in experiment [2] it was 60 nM; in experiment [3], 44 nM; in experiment [4] it was 149 nM.

Consider `CC(C)(C)[C@H](NC(=O)[C@@H]1CC1(F)F)C(=O)N1C[C@H](C(F)(F)F)C[C@H]1C(=O)NN(C[C@@H]1CCNC1=O)C(=O)[C@H](F)Cl` [Example 158, (1S)—N-[(1S)-1-[(2S,4R)-2-[[[(2R)-2-chloro-2-fluoro-acetyl]-[[(3S)-2-oxopyrrolidin-3-yl]methyl]amino]carbamoyl]-4-(trifluoromethyl)pyrrolidine-1-carbonyl]-2,2-dimethyl-propyl]-2,2-difluoro-cyclopropanecarboxamide], for which the IC50 in experiment [1] came out at 17 nM; in experiment [2], 34 nM; in experiment [3], 11 nM; in experiment [4], 80 nM.

As to `CCC(C)(C)[C@H](NC(=O)C(F)F)C(=O)N1C[C@H]2[C@@H]([C@H]1C(=O)NN(C[C@@H]1CCNC1=O)C(=O)[C@H](F)Cl)C2(C)C` [Example 144, N-[(1S)-1-[(1R,2S,5S)-2-[[[(2R)-2-chloro-2-fluoro-acetyl]-[[(3S)-2-oxopyrrolidin-3-yl]methyl]amino]carbamoyl]-6,6-dimethyl-3-azabicyclo[3.1.0]hexane-3-carbonyl]-2,2-dimethyl-butyl]-2,2-difluoro-acetamide], the IC50 in experiment [1] was 15 nM; in experiment [2], 33 nM; in experiment [3], 11 nM; in experiment [4], 112 nM.

On to `CC[C@H](C)[C@H](NC(=O)C(F)F)C(=O)N1C[C@H]2[C@@H]([C@H]1C(=O)NN(C[C@@H]1CCNC1=O)C(=O)[C@H](F)Cl)C2(C)C` [Example 51, N-[(1S,2S)-1-[(1R,2S,5S)-2-[[[(2R)-2-chloro-2-fluoro-acetyl]-[[(3S)-2-oxopyrrolidin-3-yl]methyl]amino]carbamoyl]-6,6-dimethyl-3-azabicyclo[3.1.0]hexane-3-carbonyl]-2-methyl-butyl]-2,2-difluoro-acetamide], for which the IC50 came out at 10 nM in experiment [1], 21 nM in experiment [2], 7 nM in experiment [3] and 59 nM in experiment [4].

As a reminder, the IC50 is the point on the concentration scale where inhibition reaches its midpoint.
